Laboratory results as given in patent US20260176252A1, “IONIZABLE LIPIDS WITH BRANCHED HEAD GROUPS” (Beam Therapeutics Inc., priority 2023, published 2026).

Legend:
[1] = Dynamic light scattering (DLS) of LNP preparations: size (diameter) and polydispersity; type: physicochemical; settings: Table D; LNP formulation ratio 47.5:40:2.5:10, ABE mRNA + PCSK9 sgRNA 1:1
Experimental: A ratio of aqueous to organic solvent of approximately 2:1 or 3:1 was maintained during mixing using differential flow rates. After mixing, LNP preparations were collected, diluted in phosphate buffer saline (PBS) or Tris-buffered saline (TBS) (approximately 1:1 v/v). Further buffer exchange was conducted using dialysis in PBS or TBS at 4° C. for 4 to 24 hours against a 20 kDa filter. After this initial dialysis, each individual LNP preparation may be characterized via dynamic light scattering (DLS) to measure the size (e.g., diameter) and polydispersity. LNP preparations falling within specific diameter and polydispersity ranges were pooled, and further dialyzed against PBS or TBS at 4° C. for 1 to 4 hours against a 100 kDa dialysis cassette. After the second dialysis, LNP preparations were sterile filtered using 0.22 μm filter and stored at 4° C. for further use.
(§1) LNP preparations are formed by microfluidic mixing of the lipid and NA solutions using a Precision Nanosystems NanoAssemblr Ignite Instrument, according to the manufacturer's protocol. A 3:1 ratio of aqueous to organic solvent is maintained during mixing using differential flow rates. After mixing, LNP preparations are collected, diluted in PBS (approximately 2:1 v/v), and further buffer exchange is conducted using dialysis in PBS at 4° C. for 8 to 24 hours against a 20 kDa filter. After this initial dialysis, each individual LNP preparation is characterized via dynamic light scattering (DLS) to measure size and polydispersity. pKa of a subpopulation of LNP preparations is measured via TNS assay. After dialysis, LNP preparations are sterile filtered using 0.22 micron sterile filter and stored at 4° C. for further use. In some embodiments, LNP preparations may be concentrated using 100 kDa Amicon filters per manufacturer's protocol.
DLS-LNP preparation hydrodynamic diameter and polydispersity index (PDI) is measured using high throughput dynamic light scattering (DLS) (DynaPro plate reader II, Wyatt). LNP preparations are diluted 1×PBS to an appropriate concentration and analyzed.

[2] = Encapsulation efficiency of LNP preparations (unlysed and lysed LNPs); type: physicochemical; settings: Table D; LNP formulation ratio 47.5:40:2.5:10, ABE mRNA + PCSK9 sgRNA 1:1
Experimental: Concentration of NA is determined by Qubit microRNA kit (for siRNA) or HS RNA kit (for mRNA) per manufacturer's instructions. Encapsulation efficiency is determined by measuring unlysed and lysed LNPs.

[3] = pKa of LNP preparations via TNS assay; type: physicochemical; settings: Table D; LNP formulation ratio 47.5:40:2.5:10
Experimental: as §1

PCSK9 target site = assay: In vivo base editing with LNP-delivered ABE mRNA and sgRNA targeting PCSK9; settings: Balb/c mice, IV tail vein, 0.03 mg/kg total RNA, 4 days after dosing
Experimental: Lipid nanoparticle components are dissolved in 100% ethanol at specified lipid component molar ratios. mRNA encoding an adenine base editor and a chemically-modified sgRNA is dissolved at a mass ratio of 1:1 in 10 mM citrate, 100 mM NaCl, pH 4.0, resulting in a concentration of NA cargo of approximately 0.22 mg/mL. LNP preparations are formulated with molar ratios of either 50% Ionizable Lipid:38.5% Cholesterol:1.5% PEG2000-DMG: 10% DSPC or 47.5% Ionizable Lipid:40% Cholesterol:2.5% PEG2000-DMG: 10% DSPC both at a total lipid to NA molar ratio of 6.
as §1
Male Balb/C mice aged approximately 8-12 weeks are used in the experiments described herein. Each mouse is temporarily restrained, and LNP preparations are administered IV via tail vein injection. Age-matched mice are also used to administer vehicle (1×PBS) via tail vein injection as a control. […]
For base editing, mRNA encoding an adenine base editor (ABE) and a guide RNA (sgRNA) targeting PCSK9 at 1:1 (mass ratio) are coencapsulated in LNP preparations as described herein. […] Base editing is determined by performing targeted deep sequencing analysis at the PCSK9 target site using extracted genomic DNA.

SMILES | Diameter (nm) [1] | EE (%) [2] | pKa [3] | Liver Editing A->G (%) (PCSK9 target site)
C=CC(C)(CCC=C(C)CCC=C(C)C)OC(=O)CCCCCC(=O)OCC(COC(=O)CCCCCC(=O)OC(C)(C=C)CCC=C(C)CCC=C(C)C)COC(=O)CCC(CCCCCC)OC(=O)NCCN1CCCC1 (stereo not drawn) [Example 13, 1-{2-[({7-oxo-7-[(3,7,11-trimethyldodeca-1,6,10-trien-3-yl)oxy]heptanoyl}oxy)methyl]-3-{[4-({[2-(pyrrolidin-1-yl)ethyl]carbamoyl}oxy)decanoyl]oxy}propyl}7-(3,7,11-trimethyldodeca-1,6,10-trien-3-yl) heptanedioate] | 73.3 nm | 96.1% | 6.72 | 1.2%
CCCCCCC(CCC(=O)OCC(COC(=O)CCCCCC(=O)OCC=C(C)CCC=C(C)CCC=C(C)C)COC(=O)CCCCCC(=O)OCC=C(C)CCC=C(C)CCC=C(C)C)OC(=O)NCCN1CCCC1 (stereo not drawn) [Example 14, 1-{2-[({7-oxo-7-[(3,7,11-trimethyldodeca-2,6,10-trien-1-yl)oxy]heptanoyl}oxy)methyl]-3-{[4-({[2-(pyrrolidin-1-yl)ethyl]carbamoyl}oxy)decanoyl]oxy}propyl}7-(3,7,11-trimethyldodeca-2,6,10-trien-1-yl) heptanedioate] | 77.15 nm | 97.7% | 6.78 | 23.6%
CCCCCCC(CCC(=O)OCC(COC(=O)CCCCCC(=O)OCC=C(C)CCCC(C)CCCC(C)CCCC(C)C)COC(=O)CCCCCC(=O)OCC=C(C)CCCC(C)CCCC(C)CCCC(C)C)OC(=O)NCCN1CCCC1 (stereo not drawn) [Example 15, 1-{2-[({7-oxo-7-[(3,7,11,15-tetramethylhexadec-2-en-1-yl)oxy]heptanoyl}oxy)methyl]-3-{[4-({[2-(pyrrolidin-1-yl)ethyl]carbamoyl}oxy)decanoyl]oxy}propyl}7-(3,7,11,15-tetramethylhexadec-2-en-1-yl) heptanedioate] | 74.1 nm | 98.5% | 6.32 | 15.7%
